# Reference: PubChem BioAssay AID1963427 (Molecular Pharmacology Branch, DTP, NCI, 2024)
# Tested on: 317291-083-R-J1-PDC complex spheroid growth
# Assay: Anticancer human tumor 317291-083-R-J1-PDC patient-derived soft tissue sarcoma cell line growth inhibition [Asc]
# Details: for IC50: curve of first compound; for viability, T/C: stronger effect = lower value
# Summary of the method: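 Complex solid-tumor spheroids incorporating human endothelial and mesenchymal stem cells received single agents or combinations over half-log dilution ranges anchored to clinical Cmax.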
# 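Also: compound exposure lasted seven days after spheroids formed for three days.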
# 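For viability, T/C in this document: 100% = DMSO vehicle control wells.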
structure (smiles),measurement,setting,value
Cc1nc(N2CCC3(CC2)COC(C)C3N)c(CO)nc1Sc1ccnc(N)c1Cl (centres undefined) + CNC(C)C(=O)NC1CN(S(=O)(=O)c2cccc(S(=O)(=O)N3CCC4CCC(C(=O)NC(c5ccccc5)c5ccccc5)N4C(=O)C(NC(=O)C(C)NC)C3)c2)CCC2CCC(C(=O)NC(c3ccccc3)c3ccccc3)N2C1=O,IC50,second compound 0.00316 µM,2.21 µM
same,IC50,second compound 0.01 µM,1.15 µM
same,IC50,second compound 0.0316 µM,1.96 µM
same,IC50,second compound 0.1 µM,0.0893 µM
same,IC50,second compound 0.316 µM,< 0.00949 µM
same,IC50,second compound 1 µM,< 0.00949 µM
same,"viability, T/C","second compound 0.00316 µM, first compound 0.00949 µM",93.4%
same,"viability, T/C","second compound 0.00316 µM, first compound 0.03 µM",70.8%
same,"viability, T/C","second compound 0.00316 µM, first compound 0.0949 µM",80.5%
same,"viability, T/C","second compound 0.00316 µM, first compound 0.3 µM",66.7%
same,"viability, T/C","second compound 0.00316 µM, first compound 0.949 µM",70.2%
same,"viability, T/C","second compound 0.00316 µM, first compound 3 µM",41.9%
same,"viability, T/C","second compound 0.01 µM, first compound 0.00949 µM",75.5%
same,"viability, T/C","second compound 0.01 µM, first compound 0.03 µM",90.1%
same,"viability, T/C","second compound 0.01 µM, first compound 0.0949 µM",67.8%
same,"viability, T/C","second compound 0.01 µM, first compound 0.3 µM",70%
same,"viability, T/C","second compound 0.01 µM, first compound 0.949 µM",52.2%
same,"viability, T/C","second compound 0.01 µM, first compound 3 µM",36.2%
same,"viability, T/C","second compound 0.0316 µM, first compound 0.00949 µM",65.2%
same,"viability, T/C","second compound 0.0316 µM, first compound 0.03 µM",72.8%
same,"viability, T/C","second compound 0.0316 µM, first compound 0.0949 µM",71.3%
same,"viability, T/C","second compound 0.0316 µM, first compound 0.3 µM",63.8%
same,"viability, T/C","second compound 0.0316 µM, first compound 0.949 µM",53.2%
same,"viability, T/C","second compound 0.0316 µM, first compound 3 µM",47.2%
same,"viability, T/C","second compound 0.1 µM, first compound 0.00949 µM",70.3%
same,"viability, T/C","second compound 0.1 µM, first compound 0.03 µM",51.2%
same,"viability, T/C","second compound 0.1 µM, first compound 0.0949 µM",54.1%
same,"viability, T/C","second compound 0.1 µM, first compound 0.3 µM",39.8%
same,"viability, T/C","second compound 0.1 µM, first compound 0.949 µM",39.9%
same,"viability, T/C","second compound 0.1 µM, first compound 3 µM",27.6%
same,"viability, T/C","second compound 0.316 µM, first compound 0.00949 µM",43.5%
same,"viability, T/C","second compound 0.316 µM, first compound 0.03 µM",39.8%
same,"viability, T/C","second compound 0.316 µM, first compound 0.0949 µM",38.1%
same,"viability, T/C","second compound 0.316 µM, first compound 0.3 µM",37.7%
same,"viability, T/C","second compound 0.316 µM, first compound 0.949 µM",32.4%
same,"viability, T/C","second compound 0.316 µM, first compound 3 µM",22.8%
same,"viability, T/C","second compound 1 µM, first compound 0.00949 µM",29.8%
same,"viability, T/C","second compound 1 µM, first compound 0.03 µM",22.5%
same,"viability, T/C","second compound 1 µM, first compound 0.0949 µM",29.8%
same,"viability, T/C","second compound 1 µM, first compound 0.3 µM",23.1%
same,"viability, T/C","second compound 1 µM, first compound 0.949 µM",18.5%
same,"viability, T/C","second compound 1 µM, first compound 3 µM",19.3%
O=C(c1cc(Cc2n[nH]c(=O)c3ccccc23)ccc1F)N1CCN(C(=O)C2CC2)CC1 + Cc1c(S(C)(=O)=O)c(-c2cc(F)cc(N3CCN(c4ccc(NS(=O)(=O)c5ccc(NC(CCN6CCC(C(=O)OCCCP(=O)(O)O)CC6)CSc6ccccc6)c(S(=O)(=O)C(F)(F)F)c5)cc4)CC3)c2)c(-c2ccc(Cl)cc2)n1C(C)C,IC50,second compound 0.0316 µM,6.94 µM
same,IC50,second compound 0.1 µM,8.29 µM
same,IC50,second compound 0.316 µM,5.21 µM
same,IC50,second compound 1 µM,4.35 µM
same,IC50,second compound 3.16 µM,5.16 µM
same,IC50,second compound 10 µM,5.44 µM
same,"viability, T/C","second compound 0.0316 µM, first compound 0.0316 µM",84.8%
same,"viability, T/C","second compound 0.0316 µM, first compound 0.1 µM",72.5%
same,"viability, T/C","second compound 0.0316 µM, first compound 0.316 µM",88%
same,"viability, T/C","second compound 0.0316 µM, first compound 1 µM",75.9%
same,"viability, T/C","second compound 0.0316 µM, first compound 3.16 µM",68.2%
same,"viability, T/C","second compound 0.0316 µM, first compound 10 µM",41.5%
same,"viability, T/C","second compound 0.1 µM, first compound 0.0316 µM",90%
same,"viability, T/C","second compound 0.1 µM, first compound 0.1 µM",87.3%
same,"viability, T/C","second compound 0.1 µM, first compound 0.316 µM",79.1%
same,"viability, T/C","second compound 0.1 µM, first compound 1 µM",84%
same,"viability, T/C","second compound 0.1 µM, first compound 3.16 µM",70%
same,"viability, T/C","second compound 0.1 µM, first compound 10 µM",45.9%
same,"viability, T/C","second compound 0.316 µM, first compound 0.0316 µM",82.8%
same,"viability, T/C","second compound 0.316 µM, first compound 0.1 µM",80.5%
same,"viability, T/C","second compound 0.316 µM, first compound 0.316 µM",90.2%
same,"viability, T/C","second compound 0.316 µM, first compound 1 µM",75.7%
same,"viability, T/C","second compound 0.316 µM, first compound 3.16 µM",61.8%
same,"viability, T/C","second compound 0.316 µM, first compound 10 µM",35.3%
same,"viability, T/C","second compound 1 µM, first compound 0.0316 µM",73.7%
same,"viability, T/C","second compound 1 µM, first compound 0.1 µM",98.6%
same,"viability, T/C","second compound 1 µM, first compound 0.316 µM",69.1%
same,"viability, T/C","second compound 1 µM, first compound 1 µM",63.7%
same,"viability, T/C","second compound 1 µM, first compound 3.16 µM",64.7%
same,"viability, T/C","second compound 1 µM, first compound 10 µM",27.9%
same,"viability, T/C","second compound 3.16 µM, first compound 0.0316 µM",75.7%
same,"viability, T/C","second compound 3.16 µM, first compound 0.1 µM",62.6%
same,"viability, T/C","second compound 3.16 µM, first compound 0.316 µM",61.8%
same,"viability, T/C","second compound 3.16 µM, first compound 1 µM",54.1%
same,"viability, T/C","second compound 3.16 µM, first compound 3.16 µM",67.6%
same,"viability, T/C","second compound 3.16 µM, first compound 10 µM",30.8%
same,"viability, T/C","second compound 10 µM, first compound 0.0316 µM",90.6%
same,"viability, T/C","second compound 10 µM, first compound 0.1 µM",83.4%
same,"viability, T/C","second compound 10 µM, first compound 0.316 µM",95.8%
same,"viability, T/C","second compound 10 µM, first compound 1 µM",83.2%
same,"viability, T/C","second compound 10 µM, first compound 3.16 µM",69.1%
same,"viability, T/C","second compound 10 µM, first compound 10 µM",28.9%
